Assay results reported in US11479470B2, “Three-dimensional boron-rich clusters” (The Regents of the University of California, priority 2016, dated 2022).
“Also recorded” adds a separate entry of the source.

Target: concanavalin A (ConA) (Canavalia ensiformis, UniProt P02866)
Assay: Surface plasmon resonance (Biacore T100) binding of glycosylated OCN to immobilised lectin
Settings: injected at the highest mass concentration of [2l] shown (2.0 mg 1-1)
Description: ConA was covalently attached to the Au-coated sensor chip's dextran layer via conventional amide coupling, and binding between ConA and the injected analyte was measured as a change in the refractive index (RI) and expressed in response units (RU). […] (See, e.g., Kamiya, N., et al., J. Am. Chem. Soc. 129, 3816-3817 (2007), the disclosure of which is incorporated herein by reference.)

In the case of `O=C[C@H](O)[C@@H](O)[C@H](O)[C@H](O)CO` [D-glucose], the “binding response to ConA (controls)” value is reported as “minimal to no binding; also recorded: minimal binding”.
